Experimental data taken from paper PMC9154793, “Design, synthesis, and biological evaluation of triazole-pyrimidine-methylbenzonitrile derivatives as dual A2A/A2B adenosine receptor antagonists” (Journal of Enzyme Inhibition and Medicinal Chemistry, 2022).

Tests used:
[1] = Metabolic stability in rat liver microsomes; type: in vitro ADME, Sprague–Dawley rats; details: for remaining at 10 min, 0.49 µM / remaining at 20 min, 0.49 µM / remaining at 0.5 h, 0.49 µM / remaining at 40 min, 0.49 µM / remaining at 50 min, 0.49 µM / remaining at 1 h, 0.49 µM / half-life at 0.49 µM: male, Sprague-Dawley, pooled rat liver microsomes; for remaining at 10 min, 0.49 µM / remaining at 20 min, 0.49 µM / remaining at 0.5 h, 0.49 µM / remaining at 40 min, 0.49 µM / remaining at 50 min, 0.49 µM / remaining at 1 h, 0.49 µM / CLint(liver) Rat: rat liver microsomes; for remaining at 0.5 h, 0.49 µM: 30 min; for remaining at 1 h, 0.49 µM: 60 min, read-out: Remaining (%, T = 60min) Rat; for half-life at 0.49 µM: rat, read-out: T1/2 Rat
Protocol: The metabolic stability is an important focus for further compound optimisation. Compounds 7f, 7i, and AB928 were chosen to evaluate the stability in rat liver microsomes and human liver microsomes. For the microsomal metabolic experiment, 7-ethoxycoumarin (7-EC) was used as a control. As shown in Table 4 (see Supporting information for raw data), the CLint(liver) of 7-EC in rats and humans was 10.0 and 9.0 ml/min/g liver, respectively, indicating the experimental test system was reliable.
Metabolic stabilities of compounds 7f, 7i, and AB928 in liver microsomes were studied with pooled human (male) liver microsomes solution (20 mg/ml) and male Sprague–Dawley rats pooled liver microsomes solution (20 mg/ml) purchased from Research Institute for Liver Diseases (Shanghai) Co. Ltd. Both liver microsomes solutions (140 μl) were diluted by 3948 μl of water and 280 μl of phosphate buffered saline. The assay procedure: 640 μl of diluted liver microsomes solution was added to a solution of compound working solution (16 μl, 25 μM in DMSO) and the mixed solution was incubated at 37 °C for 5 min. Then 160 μl of NADPH generating system was added and take out 100 μl from the mixed solution was added 200 μl of acetonitrile solution to stop the reaction at the set incubation time (0 min, 10 min, 20 min, 30 min, 40 min, 50 min, and 60 min). All stopped reaction solutions were vortex mixed (3 min) and centrifuged (10,000 rpm, 4 °C for 10 min). Then 50 μl of the supernatant was analysed by UPLC-MS/MS system (details of the analytical method see Supporting information). […]
8. Metabolic stability in human and rat liver microsomes
Metabolic stabilities of compounds 7f, 7i and AB928 in liver microsomes were studied with pooled human (male) liver microsomes solution (20 mg/mL) and male Sprague - Dawley rats pooled liver microsomes solution (20 mg/mL) purchased from Research Institute for Liver Diseases (Shanghai) Co. Ltd. Both liver microsomes solutions (140 μL) were diluted by 3948 μL of water and 280 μL of phosphate buffered saline. The assay procedure: 640 μL of diluted liver microsomes solution was added to a solution of compound working solution (16 μL, 25 μM in DMSO) and the mixed solution was […]
(1 picture or pasted object on this page, not shown here) […]
incubated at 37 ℃ for 5 min. Then 160 μL of NADPH generating system was added and take out 100 μL from the mixed solution was added 200 μL of acetonitrile solution to stop the reaction at the set incubation time (0 min, 10 min, 20 min, 30 min, 40 min, 50 min, and 60 min). All stopped reaction solutions were vortex mixed (3 min) and centrifuged (10000 rpm, 4 ℃ for 10 min). Then 50 μL of the supernatant was analyzed […]
8.2 Chromatography and mass spectrometry conditions
UPLC was performed using an […] UPLC system (Waters, Milford, MA, […]
USA). Separation was achieved on a Waters BEH C18 column(100 mm × 2.1 mm， 1.7 μm) at 40 ℃. The injection volume of the sample solution was 5 μL. The mobile phase consisted of water (0.1% formic acid and ammonium acetate) and acetonitrile solution (20:80, v/v) at a flow rate of 0.4 mL/min within a running time of 6 min. Mass spectrometric analysis was performed on a Waters Xevo TQ-S triple quadrupole instrument using electrospray ionization in positive mode. Quantification was performed using multiple reaction monitoring (MRM) mode to monitor precursor-product ion transitions (Table S1).
Table S1. Conditions of MRM Detection. […]
Table S2. Raw data of metabolic stability in human and rat liver microsomes. […]
(min) Hum Rat Hum Rat Hum Rat Hum Rat
9. Analytical method of pharmacokinetics assay
Animal experiments were performed according to the institutional ethical guidelines on animal care and approved by the Institute Animal Care and Use Committee at Binzhou […]
Female Bal b/c mice (sourced from Jinan Pengyue Experimental Animal Breeding […]

[2] = target: T1, human A2B AR (Homo sapiens, UniProt P29275); assay: cAMP functional assay in CHO-K1/ADORA2b/Gα15 cells (NECA-stimulated, HTRF); type: cell-based; details: for inhibition at 0.1 µM: compound at 100 nM, relative to ZM241385 at 1 μM, read-out: hA2B AR (%) inhibition of cAMP, 100 nM
T1 sequence (P29275 1-332): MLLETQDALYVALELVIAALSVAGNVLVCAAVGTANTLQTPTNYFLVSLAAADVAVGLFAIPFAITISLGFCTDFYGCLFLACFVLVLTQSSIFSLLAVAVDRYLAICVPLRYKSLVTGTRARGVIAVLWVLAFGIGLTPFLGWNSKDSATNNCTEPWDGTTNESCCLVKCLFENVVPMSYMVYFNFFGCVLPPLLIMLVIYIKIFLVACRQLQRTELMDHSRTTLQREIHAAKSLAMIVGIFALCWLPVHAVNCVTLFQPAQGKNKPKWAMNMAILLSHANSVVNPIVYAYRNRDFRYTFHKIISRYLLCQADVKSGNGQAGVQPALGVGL
Protocol: In the cAMP assay, CHO-K1/ADORA2A/Gα15 cells expressing human A2A AR and CHO-K1/ADORA2b/Gα15 cells expressing human A2B AR were activated by 5′-(N-ethylcarboxamido)adenosine (NECA) and triggered the accumulation of intracellular cAMP concentration.
CHO-K1/ADORA2A/Gα15 cells expressing human A2A AR and CHO-K1/ADORA2b/Gα15 cells expressing human A2B AR were both constructed by Genscript Biotech Corporation. […] The test stock solutions were diluted with different gradients for use. The procedure was exemplified by the cAMP functional assay on the A2A receptor: 10,000 cells/well of CHO-K1/ADORA2A/Gα15 were seeded in a 384-well plate in 20 μl of assay buffer. […] Then, 10 μl of detection reagent (cAMP-d2 and anti-cAMP-Eu3+) was added into each well of the plate and incubated at room temperature for 1 h.

[3] = target: human A2A AR (Homo sapiens, UniProt P29274); assay: A2A AR radioligand binding assay ([3H]-ZM241385, HEK-293 cell membranes); details: hA2A AR, HEK-293 membranes, [3H]-ZM241385; mean ± SEM; read-out: Radioligand binding assays IC50
Chain of human A2A AR (P29274 whole entry): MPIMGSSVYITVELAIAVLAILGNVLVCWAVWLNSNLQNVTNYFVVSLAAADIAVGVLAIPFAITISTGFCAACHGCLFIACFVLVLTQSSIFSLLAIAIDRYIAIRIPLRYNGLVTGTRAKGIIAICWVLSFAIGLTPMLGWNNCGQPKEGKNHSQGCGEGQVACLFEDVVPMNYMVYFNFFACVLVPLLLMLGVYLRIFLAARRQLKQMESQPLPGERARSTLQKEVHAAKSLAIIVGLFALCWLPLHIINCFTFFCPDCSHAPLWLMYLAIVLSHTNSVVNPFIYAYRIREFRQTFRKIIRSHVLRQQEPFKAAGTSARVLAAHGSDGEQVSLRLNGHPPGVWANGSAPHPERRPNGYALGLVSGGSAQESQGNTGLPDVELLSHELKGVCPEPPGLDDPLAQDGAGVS
Protocol: We further tested the IC50 values of compounds 7f, 7i, 17, 22, and AB928 in inhibiting the cAMP production of CHO cells expressing hA2A AR or hA2B AR (Table 2). […] In addition, the competitive binding experiments of compounds 7f, 7i, and AB928 were performed using membrane preparation of HEK-293 cells expressing human A2A AR (Table 3).
The target compounds were tested to evaluate their affinity for the A2A AR on HEK-293 cell membranes expressing human A2A AR. [^3H]-ZM241385 was used as a radioligand. The assay buffer (50 mM Tris-HCl, pH 7.4; 10 mM MgCl2; 1 mM EDTA; 1 μg/ml adenosine deaminase), wash buffer (50 mM Tris-HCl, pH 7.4; 154 mM NaCl), and 0.5% PEI solution were prepared and stored at 4 °C for use. The affinities were tested following the procedure reported by Hu et al[4].

Row | SMILES | remaining at 10 min, 0.49 µM [1] | remaining at 20 min, 0.49 µM [1] | remaining at 0.5 h, 0.49 µM [1] | remaining at 40 min, 0.49 µM [1] | remaining at 50 min, 0.49 µM [1] | remaining at 1 h, 0.49 µM [1] | half-life at 0.49 µM [1] | CLint(liver) Rat [1] | melting point | inhibition at 0.01 µM ([2]; CHO-K1, compound at 10 nM, mean ± SEM, read-out: hA2B AR percentage of inhibition (I%) of cAMP, 10 nM (converted)) | inhibition at 0.1 µM ([2]; CHO-K1, mean ± SEM) | IC50 [3] | IC50 ([2]; CHO cells expressing hA2B AR, mean ± SEM, read-out: cAMP IC50 hA2B AR) | fold more active than AB928 (cAMP IC50, A2B AR) ([2]; ratio of cAMP IC50 values vs AB928)
1 | Cc1c(C#N)cccc1-c1cc(-c2cn(Cc3cccc(C#N)n3)nn2)nc(N)n1 [Compound 7f, 6-((4-(2-Amino-6-(3-cyano-2-methylphenyl)pyrimidin-4-yl)-1H-1,2,3-triazol-1-yl)methyl)picolinonitrile] | 84.7% | 88% | 77.2% | 73.7% | 64.2% | 64% | 1.56 h | 0.78 mL/min/g | 147 to 148 °C | 10.8% | 102.6 ± 0.24% | 158 ± 56.4 nM |  | 
2 | Cc1c(C#N)cccc1-c1cc(-c2cn(Cc3cccc(C(N)=O)n3)nn2)nc(N)n1 [Compound 7i, 6-((4-(2-Amino-6-(3-cyano-2-methylphenyl)pyrimidin-4-yl)-1H-1,2,3-triazol-1-yl)methyl)picolinamide] | 74.9% | 72.8% | 67.8% | 61% | 53.8% | 50.7% | 1.12 h | 1.08 mL/min/g | 151 to 152 °C |  | 103.3 ± 0.63% | 63.6 ± 13 nM | 14.1 ± 2.05 nM | 1.8 fold
